Measured values reported in patent publication US20220257595A1, “MACITENTAN FOR USE IN TREATING PORTOPULMONARY HYPERTENSION” (ACTELION PHARMACEUTICALS LTD, priority 2019, published 2022).

Test: PORTICO PK substudy: steady-state plasma macitentan and ACT-132577
Type: in vivo, human
Protocol: It was planned to enroll at least 20 patients who were on steady-state treatment with macitentan (i.e., at least 4 weeks) into the PK substudy. The substudy was conducted in consenting patients from all centers across all regions who agreed to participate. The substudy consisted of the following periods:
PK assessments period: PK assessments were to be performed after OL study treatment had been taken for at least 4 weeks. The substudy comprised two visits (Day 1: Enrollment and Day 2: Conclusion). See, FIG. 2. Subject eligibility was first checked on Day 1 of the PK substudy prior to the start of assessments.
PK substudy: On Day 1 of the PK substudy, the study treatment was required to be taken directly after the pre-dose blood sample. On Day 2 of the PK substudy, study treatment was required to be taken after the collection of the last PK blood sample (24 hours post Day 1 dose).
F3. Pharmacokinetic Endpoints for Macitentan and its Active Metabolite ACT-132577 • The area under the plasma concentration-time curve during one dosing interval (AUCt). • Maximum plasma concentration (Cmax) during a dosing interval. • The time to reach maximum plasma concentration (tmax) during a dosing interval.
(i) Timing for sampling: For the PK assessment, blood samples were drawn at the following time points: • PK substudy Day 1: Immediately before study treatment administration in the morning (pre-dose) and 1 h, 3 h, 5 h, 6 h, 7 h, 8 h, 9 h, 10 h, 12 h, and 14 h post-dose. • PK substudy Day 2: 24 h post-dose.
(iii) Bioanalysis: A validated liquid chromatography coupled to mass spectrometry method was used for determining the concentrations of macitentan and its metabolite ACT-132577 in plasma. The limit of quantification (LOQ) for both analytes was 1 ng/mL.
The measured individual plasma concentrations of macitentan and its metabolite ACT-132577 were used to directly obtain Cmax and tmax. AUCT was calculated according to the linear trapezoidal rule using the measured concentration-time values above the LOQ during one dosing interval. The PK variables were calculated on the basis of the real (actual) blood sampling time points. For mean value calculations, all values below the LOQ (below the limit of quantification (BLQ) values) were set to zero if ≤50% of the values at a given time point were BLQ. If >50% of the values at a given time point were BLQ, no mean value was calculated. Mean concentration-time profiles were generated using these criteria. The individual and mean plasma concentration-time profiles were plotted on a linear scale. The derived PK variables for macitentan and ACT-132577 (AUCT, Cmax, tmax) are listed by patient. Plasma concentrations per time point were summarized using arithmetic mean, minimum, median, maximum, standard deviation (SD), standard error (SE), and two-sided 95% confidence interval of the mean. […] (*For tmax the geometric mean and its 95% confidence interval were not calculated).

With `NS(=O)(=O)Nc1ncnc(OCCOc2ncc(Br)cn2)c1-c1ccc(Br)cc1` [ACT-132577, aprocitentan] the “Plasma exposure in PoPH patients compared with other forms of PAH / other macitentan studies” value was “consistent between PoPH patients and patients with other forms of PAH”, the “Trough plasma concentration, mean±SD” value (OL macitentan 10 mg o.d. at least 4 weeks, PoPH patients, n=8) was 737.4 ± 190.0 ng/mL and the Cmax (human, plasma, oral, macitentan 10 mg o.d., PoPH patients, PKS 10 patients, read-out: Cmax, geometric mean (95% confidence interval)) was 870 ng/mL. For the same compound, the Tmax (human, plasma, oral, macitentan 10 mg o.d., PoPH patients, PKS 10 patients, read-out: tmax, median (range)) was 6.5 h and the “AUCT, geometric mean (95% confidence interval)” value (one dosing interval, macitentan 10 mg o.d., PoPH patients) was 18100.0 ng·h/mL.
